How the values were obtained:
[1] = tested on: Botryotinia fuckeliana (Botrytis cinerea); assay: Botryotinia fuckeliana (Botrytis cinerea) / liquid culture (gray mould); assay type: cell-based; conditions: 72 h, read-out: control of Botryotinia fuckeliana
Gaeumannomyces graminis = Gaeumannomyces graminis / liquid culture (take-all of cereals); assay type: cell-based; conditions: read-out: control of Gaeumannomyces graminis
Fusarium culmorum [2] = assay: whole plant or invertebrate; assay type: in vivo; conditions: in Triticum aestivum, read-out: control of Fusarium culmorum
Fusarium culmorum [3] = assay: microbe, parasite or virus in culture; assay type: cell-based; conditions: read-out: control of Fusarium culmorum
[4] = tested on: Monographella nivalis (Microdochium nivale); assay: Monographella nivalis (Microdochium nivale) / liquid culture (foot rot cereals); assay type: cell-based; conditions: 96 h, read-out: control of Monographella nivalis
[5] = tested on: Glomerella lagenarium (Colletotrichum lagenarium); assay: Glomerella lagenarium (Colletotrichum lagenarium) / liquid culture (anthracnose); assay type: cell-based; conditions: Colletotrichum orbiculare; read-out: control of Glomerella lagenarium
[6] = tested on: Magnaporthe grisea (Pyricularia oryzae); assay: microbe, parasite or virus in culture; assay type: cell-based; conditions: 72 h, read-out: control of Magnaporthe grisea

Row | SMILES | inhibition of growth at 200 ppm [1] | inhibition of growth at 200 ppm (Gaeumannomyces graminis) | pest or weed control at 200 ppm (Fusarium culmorum [2]) | inhibition of growth at 200 ppm (Fusarium culmorum [3]) | inhibition of growth at 200 ppm [4] | inhibition of growth at 200 ppm [5] | melting point | inhibition of growth at 200 ppm [6]
1 | CC(C)CC(C)(Cc1ccccc1)NC(=O)c1cnc2ccccc2c1 (stereo not drawn) [Compound E-13, N-(1-benzyl-1,3-dimethyl-butyl)quinoline-3-carboxamide] | ≥ 80% | ≥ 80% | ≥ 80% | ≥ 80% | ≥ 80% | ≥ 80% |  | 
2 | Cc1cccc(CC(C)(CC(C)C)NC(=O)c2cnc3c(F)cccc3c2)c1 (stereo not drawn) [Compound E-33, N-[1,3-dimethyl-1-(m-tolylmethyl)butyl]-8-fluoro-quinoline-3-carboxamide] | ≥ 80% |  |  | ≥ 80% | ≥ 80% | ≥ 80% | 94 to 96 °C | ≥ 80%
3 | O=C(NC(Cc1ccccc1)CC(F)(F)F)c1cnc2c(F)cccc2c1 (stereo not drawn) [Compound E-30, N-(1-benzyl-3,3,3-trifluoro-propyl)-8-fluoro-quinoline-3-carboxamide] | ≥ 80% |  | ≥ 80% | ≥ 80% | ≥ 80% | ≥ 80% | 140 to 142 °C | ≥ 80%
4 | CC(C)(F)CC(C)(Cc1ccccc1)NC(=O)c1cnc2c(F)cccc2c1 (stereo not drawn) [Compound E-56, N-(1-benzyl-3-fluoro-1,3-dimethyl-butyl)-8-fluoro-quinoline-3-carboxamide] | ≥ 80% |  | ≥ 80% | ≥ 80% | ≥ 80% | ≥ 80% |  | ≥ 80%
5 | Cc1ccc(CC(C)(CC(C)C)NC(=O)c2cnc3c(F)cccc3c2)cc1 (stereo not drawn) [Compound E-31, N-[1,3-dimethyl-1-(p-tolylmethyl)butyl]-8-fluoro-quinoline-3-carboxamide] | ≥ 80% |  |  | ≥ 80% | ≥ 80% | ≥ 80% | 116 to 118 °C | ≥ 80%
6 | CC(C)C[C@](C)(Cc1ccccc1Cl)NC(=O)c1cnc2c(F)cccc2c1 [Compound F-7, N-[(1R)-1-[(2-chlorophenyl)methyl]-1,3-dimethyl-butyl]-8-fluoro-quinoline-3-carboxamide] | ≥ 80% | ≥ 80% |  | ≥ 80% |  | ≥ 80% |  | 
7 | CC(C#N)(Cc1ccc(F)cc1F)NC(=O)c1cnc2c(F)cccc2c1 (stereo not drawn) [Compound E-8, N-[1-cyano-2-(2,4-difluorophenyl)-1-methyl-ethyl]-8-fluoro-quinoline-3-carboxamide] | ≥ 80% | ≥ 80% |  | ≥ 80% |  |  |  | 
8 | CC(C)CC(C)(NC(=O)c1cnc2c(F)cccc2c1)C(F)(F)c1ccccc1 (stereo not drawn) [Compound E-54, N-[1-[difluoro(phenyl)methyl]-1,3-dimethyl-butyl]-8-fluoro-quinoline-3-carboxamide] | ≥ 80% |  |  | ≥ 80% | ≥ 80% | ≥ 80% |  | ≥ 80%
9 | C=CC[C@](C)(Cc1ccccc1)NC(=O)c1cnc2c(F)cccc2c1 [Compound F-16, N-[(1R)-1-benzyl-1-methyl-but-3-enyl]-8-fluoro-quinoline-3-carboxamide] | ≥ 80% | ≥ 80% | ≥ 80% | ≥ 80% |  | ≥ 80% |  | 
10 | CC(C)(F)CC(C)(Cc1ccccc1)NC(=O)c1cnc2ccccc2c1 (stereo not drawn) [Compound E-57, N-(1-benzyl-3-fluoro-1,3-dimethyl-butyl)quinoline-3-carboxamide] | ≥ 80% |  | ≥ 80% | ≥ 80% | ≥ 80% | ≥ 80% |  | ≥ 80%
11 | CC(C)(NC(=O)c1cnc2ccccc2c1)C(C)(C)c1ccccc1F [Compound E-1, N-[2-(2-fluorophenyl)-1,1,2-trimethyl-propyl]quinoline-3-carboxamide] | ≥ 80% | ≥ 80% | ≥ 80% | ≥ 80% | ≥ 80% | ≥ 80% |  | 
12 | CC(Cc1ccccc1)(CC(F)(F)F)NC(=O)c1cnc2c(Cl)cccc2c1 (stereo not drawn) [Compound E-60, N-(1-benzyl-3,3,3-trifluoro-1-methyl-propyl)-8-chloro-quinoline-3-carboxamide] | ≥ 80% |  | ≥ 80% | ≥ 80% | ≥ 80% | ≥ 80% | 141 to 144 °C | ≥ 80%
13 | CC(C#N)(Cc1ccc(Cl)cc1)NC(=O)c1cnc2c(F)cccc2c1 (stereo not drawn) [Compound E-7, N-[2-(4-chlorophenyl)-1-cyano-1-methyl-ethyl]-8-fluoro-quinoline-3-carboxamide] | ≥ 80% | ≥ 80% |  | ≥ 80% |  |  |  | 
14 | CC(C)C[C@](C)(Cc1ccccc1)NC(=O)c1cnc2ccccc2c1 [Compound F-5, N-[(1R)-1-benzyl-1,3-dimethyl-butyl]quinoline-3-carboxamide] | ≥ 80% | ≥ 80% | ≥ 80% | ≥ 80% | ≥ 80% | ≥ 80% |  | 
15 | CC(F)(F)C[C@](C)(Cc1ccccc1)NC(=O)c1cnc2c(F)cccc2c1 [Compound F-39, N-[(1S)-1-benzyl-3,3-difluoro-1-methyl-butyl]-8-fluoro-quinoline-3-carboxamide] | ≥ 80% |  | ≥ 80% | ≥ 80% | ≥ 80% | ≥ 80% |  | ≥ 80%
16 | CC(Cc1ccccc1)(CC(F)(F)F)NC(=O)c1cnc2c(C#N)cccc2c1 (stereo not drawn) [Compound E-62, N-(1-benzyl-3,3,3-trifluoro-1-methyl-propyl)-8-cyano-quinoline-3-carboxamide] | ≥ 80% |  | ≥ 80% | ≥ 80% |  | ≥ 80% | 175 to 179 °C | ≥ 80%
17 | CC(C#N)(Cc1ccccc1)NC(=O)c1cnc2c(F)cccc2c1 (stereo not drawn) [Compound E-10, N-(1-cyano-1-methyl-2-phenyl-ethyl)-8-fluoro-quinoline-3-carboxamide] | ≥ 80% | ≥ 80% | ≥ 80% | ≥ 80% |  |  |  | 
18 | CC(Cc1ccccc1)(CC(F)(F)F)NC(=O)c1cnc2cc(Cl)ccc2c1 (stereo not drawn) [Compound E-69, N-(1-benzyl-3,3,3-trifluoro-1-methyl-propyl)-7-chloro-quinoline-3-carboxamide] | ≥ 80% |  | ≥ 80% | ≥ 80% |  | ≥ 80% | 174 to 176 °C | ≥ 80%
19 | CC(C)(C)C(Cc1ccccc1)NC(=O)c1cnc2c(F)cccc2c1 (stereo not drawn) [Compound E-12, N-(1-benzyl-2,2-dimethyl-propyl)-8-fluoro-quinoline-3-carboxamide] | ≥ 80% |  | ≥ 80% | ≥ 80% | ≥ 80% | ≥ 80% | 163 to 164 °C | ≥ 80%
20 | CC(C)C[C@@](C)(Cc1ccccc1Cl)NC(=O)c1cnc2c(F)cccc2c1 [Compound F-8, N-[(1S)-1-[(2-chlorophenyl)methyl]-1,3-dimethyl-butyl]-8-fluoro-quinoline-3-carboxamide] | ≥ 80% | ≥ 80% |  | ≥ 80% | ≥ 80% | ≥ 80% |  | 
21 | CC(C)C(C)(Cc1ccccc1)NC(=O)c1cnc2c(F)cccc2c1 (stereo not drawn) [Compound E-5, N-(1-benzyl-1,2-dimethyl-propyl)-8-fluoro-quinoline-3-carboxamide] | ≥ 80% |  | ≥ 80% | ≥ 80% | ≥ 80% | ≥ 80% |  | ≥ 80%
22 | CC(C)CC(C)(NC(=O)c1cnc2ccccc2c1)C(F)(F)c1ccccc1 (stereo not drawn) [Compound E-59, N-[1-[difluoro(phenyl)methyl]-1,3-dimethyl-butyl]quinoline-3-carboxamide] | ≥ 80% |  | ≥ 80% | ≥ 80% | ≥ 80% |  |  | ≥ 80%
23 | CC(C)(C)C[C@](C)(Cc1ccccc1)NC(=O)c1cnc2c(F)cccc2c1 [Compound F-17, N-[(1R)-1-benzyl-1,3,3-trimethyl-butyl]-8-fluoro-quinoline-3-carboxamide] | ≥ 80% | ≥ 80% | ≥ 80% | ≥ 80% |  | ≥ 80% |  | 
24 | CC(Cc1ccccc1)(CC1CC1)NC(=O)c1cnc2c(F)cccc2c1 (stereo not drawn) [Compound E-49, N-(1-benzyl-2-cyclopropyl-1-methyl-ethyl)-8-fluoro-quinoline-3-carboxamide] | ≥ 80% |  | ≥ 80% | ≥ 80% | ≥ 80% | ≥ 80% |  | ≥ 80%

— patent publication US10477864B2, “Microbiocidal quinoline (thio)carboxamide derivatives” (priority 2016, dated 2019)
